Reference: US20070276049A1 (priority 2003, published 2007)
Read-outs that look alike come from different tables or passages of the source.

Columns and labels:
[1] = system: Streptococcus pyogenes T18P; type: cell-based, S. pyogenes; conditions: GML 10 and 20 ug/ml
rabbit RBCs [2] = type: cell-based
human RBCs = type: cell-based
rabbit RBCs [3] = assay: Streptolysin O-induced hemolysis on RBC-containing agar plates; type: cell-based; conditions: GML 10 μg/ml in agar; Group A Streptococci stabbed into agar
Procedure: GML (10 μg/ml) was incorporated into culture plates containing solid agar and rabbit RBCs suspended in the agar. The effect of GML on. streptolysin O-induced hemolysis was tested by stabbing the Group A Streptococci into the agar so as to permit the anaerobic growth of the bacteria beneath the surface of the agar and thereby allow streptolysin O to function.

HIV-1 = type: cell-based
rabbit RBCs [4] = system: rabbit RBCs

Compound | number of bacteria in the epithelial cells [1] | lysis of RBCs by hemolysin (rabbit RBCs [2]) | lysis of human RBCs by the B. anthracis exotoxin (human RBCs; GML 1 μg/ml) | lysis of human RBCs by the B. anthracis exotoxin (human RBCs; GML 10 μg/ml) | streptolysin O-induced hemolysis of RBCs (rabbit RBCs [3]) | cells expressing p24 (HIV-1) | total number of cells in the samples (HIV-1) | RBC lysis by GML alone (rabbit RBCs [4]) | lysis of rabbit RBCs by the B. anthracis exotoxin (rabbit RBCs [4]; GML 5 μg/ml) | lysis of rabbit RBCs by the B. anthracis exotoxin (rabbit RBCs [4]; GML 10 μg/ml) | Absorbance at 410 nm (rabbit RBCs [2]) | lysis of RBCs (rabbit RBCs [2])
CCCCCCCCCCCC(=O)OCC(O)CO (stereo not drawn) [GML, glycerol monolaurate] | dramatic decreases | completely prevented | partially inhibited | completely inhibited | completely prevented | rare and no | significantly less | did not cause RBC lysis | partially inhibited | almost completely inhibited |  | 
α-hemolysin |  |  |  |  |  |  |  |  |  |  | 0.97 | complete cell lysis
